The text below walks through data of patent publication US9951063B2, “8-(piperazin-1-yl)-1,2,3,4-tetrahydro-isoquinoline derivatives” (IDORSIA PHARMACEUTICALS LTD, priority 2014, dated 2018).

The structures appear in SMILES notation.

This assay deals with human CXCR3A (Homo sapiens (Human), UniProt P49682). Description: FLIPR assay (inhibition of CXCL10-induced calcium signal). The format is cell-based. The following applies: engineered CHO-K1 cells expressing human CXCR3A coupled to Galpha(16); Fluo-4-AM; CXCL10 agonist 20 nM; mean values where determined several times. Summed up: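 CHO-K1 cells expressing human CXCR3A coupled to Gα16 were loaded with Fluo-4-AM for 1 h in HBSS/20 mM Hepes pH 7.4 with probenecid. Compound was added, then CXCL10 (20 nM as dispensed). Baseline-subtracted peak fluorescence gave inhibition curves and IC50, averaged over repeats.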
Sequence of human CXCR3A (P49682 whole entry): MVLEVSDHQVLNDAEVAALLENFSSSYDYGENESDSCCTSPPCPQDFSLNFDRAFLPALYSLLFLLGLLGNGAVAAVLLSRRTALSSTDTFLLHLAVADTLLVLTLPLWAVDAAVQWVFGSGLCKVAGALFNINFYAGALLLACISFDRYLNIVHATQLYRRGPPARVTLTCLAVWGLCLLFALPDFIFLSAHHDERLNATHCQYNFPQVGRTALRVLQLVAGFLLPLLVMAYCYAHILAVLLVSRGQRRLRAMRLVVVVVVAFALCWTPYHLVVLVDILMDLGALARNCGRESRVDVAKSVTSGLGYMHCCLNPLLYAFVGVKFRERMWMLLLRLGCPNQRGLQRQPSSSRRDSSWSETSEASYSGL
On to `C[C@@H]1CN(c2cccc3c2CN(c2nc(-c4ccccc4)cs2)CC3)CCN1C(=O)Cn1cnc2cccnc21` [Example 124, 2-Imidazo[4,5-b]pyridin-3-yl-1-{(R)-2-methyl-4-[2-(4-phenyl-thiazol-2-yl)-1,2,3,4-tetrahydro-isoquinolin-8-yl]-piperazin-1-yl}-ethanone], for which the IC50 came to 34.4 nM. The figure for `Cc1nc(C)n(CC(=O)N2CCN(c3cccc4c3CN(c3cnc(C(F)(F)F)nc3)CC4)C[C@H]2C)n1` [Example 125, 2-(3,5-Dimethyl-[1,2,4]triazol-1-yl)-1-{(R)-2-methyl-4-[2-(2-trifluoromethyl-pyrimidin-5-yl)-1,2,3,4-tetrahydro-isoquinolin-8-yl]-piperazin-1-yl}-ethanone] is 47.4 nM; for `Cc1nc(C)n(CC(=O)N2CCN(c3cccc4c3CN(c3cnc(C5CC5)nc3)CC4)C[C@H]2C)n1` [Example 126, 1-{(R)-4-[2-(2-Cyclopropyl-pyrimidin-5-yl)-1,2,3,4-tetrahydro-isoquinolin-8-yl]-2-methyl-piperazin-1-yl}-2-(3,5-dimethyl-[1,2,4]triazol-1-yl)-ethanone] it is 3.98 nM; for `CCOc1ncc(N2CCc3cccc(N4CCN(C(=O)Cn5nc(C)nc5C)[C@H](C)C4)c3C2)cn1` [Example 127, 2-(3,5-Dimethyl-[1,2,4]triazol-1-yl)-1-{(R)-4-[2-(2-ethoxy-pyrimidin-5-yl)-1,2,3,4-tetrahydro-isoquinolin-8-yl]-2-methyl-piperazin-1-yl}-ethanone] it is 33.1 nM. Consider `CCOc1ncc(N2CCc3cccc(N4CCN(C(=O)Cn5nc(C)cc5C)[C@H](C)C4)c3C2)cn1` [Example 128, 2-(3,5-Dimethyl-pyrazol-1-yl)-1-{(R)-4-[2-(2-ethoxy-pyrimidin-5-yl)-1,2,3,4-tetrahydro-isoquinolin-8-yl]-2-methyl-piperazin-1-yl}-ethanone], for which the IC50 worked out at 7.94 nM. Consider `CCOc1ncc(N2CCc3c(F)ccc(N4CCN(C(=O)Cn5cnc6cccnc65)[C@H](C)C4)c3C2)cn1` [Example 129, 1-{(R)-4-[2-(2-Ethoxy-pyrimidin-5-yl)-5-fluoro-1,2,3,4-tetrahydro-isoquinolin-8-yl]-2-methyl-piperazin-1-yl}-2-imidazo[4,5-b]pyridin-3-yl-ethanone], for which the IC50 was found to be 3.1 nM. Turning to `CCOc1ncc(N2CCc3c(F)ccc(N4CCN(C(=O)Cn5nc(C)cc5C)[C@H](C)C4)c3C2)cn1` [Example 130, 2-(3,5-Dimethyl-pyrazol-1-yl)-1-{(R)-4-[2-(2-ethoxy-pyrimidin-5-yl)-5-fluoro-1,2,3,4-tetrahydro-isoquinolin-8-yl]-2-methyl-piperazin-1-yl}-ethanone], the IC50 turned out to be 5.7 nM. Turning to `CCOc1ncc(N2CCc3c(F)ccc(N4CCN(C(=O)Cn5nc(C)nc5C)[C@H](C)C4)c3C2)cn1` [Example 131, 2-(3,5-Dimethyl-[1,2,4]triazol-1-yl)-1-{(R)-4-[2-(2-ethoxy-pyrimidin-5-yl)-5-fluoro-1,2,3,4-tetrahydro-isoquinolin-8-yl]-2-methyl-piperazin-1-yl}-ethanone], the IC50 is 24.3 nM. Turning to `Cc1nc(C)n(CC(=O)N2CCN(c3ccc(F)c4c3CN(c3cnc(C(F)(F)F)nc3)CC4)C[C@H]2C)n1` [Example 132, 2-(3,5-Dimethyl-[1,2,4]triazol-1-yl)-1-{(R)-4-[5-fluoro-2-(2-trifluoromethyl-pyrimidin-5-yl)-1,2,3,4-tetrahydro-isoquinolin-8-yl]-2-methyl-piperazin-1-yl}-ethanone], the IC50 worked out at 58.9 nM.

On to `Cc1nc(C)n(CC(=O)N2CCN(c3ccc(F)c4c3CN(c3cnc(C5CC5)nc3)CC4)C[C@H]2C)n1` [Example 133, 1-{(R)-4-[2-(2-Cyclopropyl-pyrimidin-5-yl)-5-fluoro-1,2,3,4-tetrahydro-isoquinolin-8-yl]-2-methyl-piperazin-1-yl}-2-(3,5-dimethyl-[1,2,4]triazol-1-yl)-ethanone], for which the IC50 was 5.42 nM. For `CCOc1ncc(N2CCc3cc(C(F)(F)F)cc(N4CCN(C(=O)Cn5cnc6cccnc65)[C@H](C)C4)c3C2)cn1` [Example 134, 1-{(R)-4-[2-(2-Ethoxy-pyrimidin-5-yl)-6-trifluoromethyl-1,2,3,4-tetrahydro-isoquinolin-8-yl]-2-methyl-piperazin-1-yl}-2-imidazo[4,5-b]pyridin-3-yl-ethanone], the IC50 worked out at 52.1 nM. The figure for `C[C@@H]1CN(c2cccc3c2CN(C(=O)OCc2ccccc2)CC3)CCN1C(=O)Cn1cccn1` [Example 135, 8-[(R)-3-Methyl-4-(2-pyrazol-1-yl-acetyl)-piperazin-1-yl]-3,4-dihydro-1H-isoquinoline-2-carboxylic acid benzyl ester] is 116 nM; for `Cc1nc(C)n(CC(=O)N2CCN(c3cccc4c3CN(C(=O)OCc3ccccc3)CC4)C[C@H]2C)n1` [Example 136, 8-{(R)-4-[2-(3,5-Dimethyl-[1,2,4]triazol-1-yl)-acetyl]-3-methyl-piperazin-1-yl}-3,4-dihydro-1H-isoquinoline-2-carboxylic acid benzyl ester] it is 33.2 nM. With `O=C(Cn1cnc2cccnc21)N1CCN(c2cccc3c2CN(C(=O)OCc2ccccc2)CC3)CC1` [Example 137, 8-[4-(2-Imidazo[4,5-b]pyridin-3-yl-acetyl)-piperazin-1-yl]-3,4-dihydro-1H-isoquinoline-2-carboxylic acid benzyl ester], the IC50 came to 9.1 nM.

On to `O=C(Cn1ccc2cccnc21)N1CCN(c2cccc3c2CN(C(=O)OCc2ccccc2)CC3)CC1` [Example 138, 8-[4-(2-Pyrrolo[2,3-b]pyridin-1-yl-acetyl)-piperazin-1-yl]-3,4-dihydro-1H-isoquinoline-2-carboxylic acid benzyl ester], for which the IC50 was 12.4 nM. In the case of `Cn1c(=O)n(CC(=O)N2CCN(c3cccc4c3CN(C(=O)OCc3ccccc3)CC4)CC2)c2ccccc21` [Example 139, 8-{4-[2-(3-Methyl-2-oxo-2,3-dihydro-benzoimidazol-1-yl)-acetyl]-piperazin-1-yl}-3,4-dihydro-1H-isoquinoline-2-carboxylic acid benzyl ester] it was 21.7 nM; in that of `Cn1c(=O)n(CC(=O)N2CCN(c3cccc4c3CN(C(=O)c3ccccc3)CC4)CC2)c2ccccc21` [Example 140, 1-{2-[4-(2-Benzoyl-1,2,3,4-tetrahydro-isoquinolin-8-yl)-piperazin-1-yl]-2-oxo-ethyl}-3-methyl-1,3-dihydro-benzoimidazol-2-one], 51.2 nM; in that of `Cn1c(=O)n(CC(=O)N2CCN(c3cccc4c3CN(C(=O)Cc3ccccc3)CC4)CC2)c2ccccc21` [Example 141, 1-Methyl-3-{2-oxo-2-[4-(2-phenylacetyl-1,2,3,4-tetrahydro-isoquinolin-8-yl)-piperazin-1-yl]-ethyl}-1,3-dihydro-benzoimidazol-2-one], 190 nM. In the case of `O=C(Cn1cnc2cccnc21)N1CCN(c2cccc3c2CN(S(=O)(=O)Cc2ccccc2)CC3)CC1` [Example 142, 2-Imidazo[4,5-b]pyridin-3-yl-1-[4-(2-phenylmethanesulfonyl-1,2,3,4-tetrahydro-isoquinolin-8-yl)-piperazin-1-yl]-ethanone] it was 65.4 nM; in that of `C[C@@H]1CN(c2cccc3c2CN(Cc2ccc(Cl)cc2)CC3)CCN1C(=O)Cn1cnc2cccnc21` [Example 143, 1-{(R)-4-[2-(4-Chloro-benzyl)-1,2,3,4-tetrahydro-isoquinolin-8-yl]-2-methyl-piperazin-1-yl}-2-imidazo[4,5-b]pyridin-3-yl-ethanone], 465 nM.

As usually defined, the IC50 is the concentration that gives 50% inhibition.
